Tested on: human leukemia cell line K562
Experiment: In vitro antitumor/anticancer testing (CCK-8), K562
Assay type: cell-based
Conditions: 48 h, read-out: Percent growth inhibition
Protocol: Each of Tea Product 1 and Conventional Tea Product obtained in section A of this example was used to prepare test tea samples according to the method described below. A proper amount of the respective tea product was added into sterile water to prepare a stock solution with a concentration of 100 mg/mL, followed by using a membrane filter with a pore size of 0.22 μm to conduct vacuum filtration and sterilization. The resulting stock solution was diluted with a respective complete medium shown in Table 3 below to form test tea samples with different concentrations. In other words, the thus obtained test tea samples to be used for treating a respective cancer/tumor cell line shown in Table 3 were prepared using the same complete medium as that for the respective cancer/tumor cell line.
Specifically, each of the aforesaid commercially available agents was subjected to the method described below to prepare comparative test samples. A proper amount of a respective commercially available agent was dissolved in phosphate-buffered saline (PBS) to prepare a stock solution with a concentration of 5 mg/mL, followed by using a membrane filter with a pore size of 0.22 μm to conduct vacuum filtration and sterilization. The resulting stock solution was diluted with a respective complete medium shown in Table 3 below to form comparative test samples with different concentrations. To be specific, the comparative test samples prepared from the respective commercially available agent have the concentrations shown in Table 2 below. The thus obtained comparative test samples to be used for treating a respective cancer/tumor cell line shown in Table 3 were prepared using the same complete medium as that for the respective cancer/tumor cell line.
The cultivation of each cancer/tumor cell line is described as follows. […] Afterwards, a cell suspension having a cell density of 1.0×10^4 cells/mL was prepared.
As experimental groups, the tumor/cancer cells of each cell line were treated with the test tea samples prepared from one or more of the tea products and the comparative test samples prepared from one or more of the commercially available agents as obtained in section B of this example (for more detailed information about the tea product(s) and the commercially available product (s) used to treat each cell line, please see Table 4 below). To be specific, 6 to 10 test tea samples prepared from the same tea product and having different concentrations, as well as 6 to 10 comparative test samples prepared from the same commercially available agent and having different concentrations, were utilized to treat the tumor/cancer cells of each cell line. For each experimental group, 6 repetitions of tumor/cancer treatment were performed. For the control group, 100 μL of PBS was added to a well containing the medium and the cancer/tumor cells of the respective cell line. For the blank group, 100 μL of PBS was added to a well containing a complete medium the same as that used for cultivation of the cancer/tumor cells of the respective cell line.
After the treatment described above, cultivation was conducted in an incubator (37° C., 100% relative humidity, 5% CO2) for 48 hours. Subsequently, the liquid containing the medium and the sample in the well was removed, and a respective complete medium (shown in Table 3 above) containing 10% CCK-8 (Cell Counting Kit-8)(Dojindo Molecular Technologies, Inc., Cat. No. CK04-13) was added. Cultivation was performed in an incubator (37° C.) for 2 to 4 hours, followed by gently shaking.

`Cc1ccc(NC(=O)c2ccc(CN3CCN(C)CC3)cc2)cc1Nc1nccc(-c2cccnc2)n1` [Glivec] showed an inhibition at 0.0184 µg/mL (0.0184 μg/mL) of 17.7%, an inhibition at 0.0369 µg/mL (0.0369 μg/mL) of 35.7% and an inhibition at 0.0737 µg/mL (0.0737 μg/mL) of 55.3%. For the same compound, the inhibition at 0.1474 µg/mL (0.1474 μg/mL) was 66.2%, the inhibition at 0.2949 µg/mL (0.2949 μg/mL) was 81.5% and the inhibition at 0.5897 µg/mL (0.5897 μg/mL) was 88.9%.

Source: US20180071354A1, “SELECTIVE BREEDING METHOD OF ANTITUMOR/ANTICANCER CAMELLIA SINENSIS STRAIN, AND TEA PRODUCT OF SUCH STRAIN” (FUJIAN AGRICULTURE AND FORESTRY UNIVERSITY, priority 2015, published 2018)
